Reference: US5773239A, “Mannosidase inhibitors, process for their preparation and their use as therapeutic agents” (Mount Sinai Hospital Corporation., priority 1995, dated 1998)
Read-outs that look alike come from different tables or passages of the source.

What was measured:
[1] = molecular target: T1, MDAY-D2 lysosomal α-mannosidases (Mus musculus, UniProt O09159); assay: Inhibition of lysosomal α-mannosidases in MDAY-D2 tumor cell lysate; format: biochemical
T1 construct: 10 μl MDAY-D2 tumor cell lysate; endogenous in cells; host or cells: MDAY-D2 tumor cells (lysate)
T1 sequence (O09159 50-1013): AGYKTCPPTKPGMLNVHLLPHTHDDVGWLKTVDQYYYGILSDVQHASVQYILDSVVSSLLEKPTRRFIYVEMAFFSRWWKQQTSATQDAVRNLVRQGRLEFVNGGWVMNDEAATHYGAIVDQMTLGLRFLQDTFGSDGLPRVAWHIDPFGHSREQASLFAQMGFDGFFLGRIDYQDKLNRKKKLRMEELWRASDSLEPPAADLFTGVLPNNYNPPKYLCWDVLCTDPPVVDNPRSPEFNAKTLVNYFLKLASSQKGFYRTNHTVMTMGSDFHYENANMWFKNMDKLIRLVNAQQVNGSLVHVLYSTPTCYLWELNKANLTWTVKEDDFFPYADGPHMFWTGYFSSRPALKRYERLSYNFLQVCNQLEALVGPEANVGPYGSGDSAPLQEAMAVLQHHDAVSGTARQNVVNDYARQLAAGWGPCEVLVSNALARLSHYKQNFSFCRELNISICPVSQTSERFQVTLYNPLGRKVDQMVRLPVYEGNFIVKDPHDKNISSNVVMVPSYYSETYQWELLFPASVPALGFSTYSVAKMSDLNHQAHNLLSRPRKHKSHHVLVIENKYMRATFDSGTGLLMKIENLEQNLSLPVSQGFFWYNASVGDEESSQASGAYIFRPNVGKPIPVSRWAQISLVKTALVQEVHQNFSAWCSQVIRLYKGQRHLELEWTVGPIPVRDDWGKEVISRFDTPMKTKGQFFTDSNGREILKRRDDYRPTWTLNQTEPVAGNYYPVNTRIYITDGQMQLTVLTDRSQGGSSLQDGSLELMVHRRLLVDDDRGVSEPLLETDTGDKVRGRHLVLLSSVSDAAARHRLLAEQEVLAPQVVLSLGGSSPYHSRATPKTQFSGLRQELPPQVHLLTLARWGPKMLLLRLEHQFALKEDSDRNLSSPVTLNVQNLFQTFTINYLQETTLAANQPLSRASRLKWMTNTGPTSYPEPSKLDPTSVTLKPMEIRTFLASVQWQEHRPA
Procedure: SW and analogues were serially diluted into a volume of 75 μl in 96 well Elisa plates followed by the addition of 37.5 μl of 100 mM sodium acetate pH 5.0 and 37.5 μl of 10 mM p-nitrophenyl α-D-mannospyranoside. Jack Bean α-mannosidase (Sigma, 38 U/ml) was diluted 1/800, 10 μl was added to each well and the plates were incubated for 20 min at 37° C. The reaction was stopped by the addition of 150 μl of 0.5M sodium carbonate and formation of p-nitrophenol was measured with a plate set at 405 nm. The effects of SW and analogues on cellular acid α-mannosidases (ie. lysosomal enzyme) were measured using the same assay where Jack Bean α-mannosidase was replaced by 10 μl MDAY-D2 tumor cell lysate (10 μg/μl of protein) prepared in 0.9% NaCl, 50 mM Tris pH 7.0, 0.5% Triton X-100 and 1.0 mM diethyl p-nitrophenyl phosphate.

B16F10 melanoma cells [2] = assay: Lung colonization assay; format: in vivo, C57B1/6J mice; conditions: for Survivors at day 28: injected i.v.; for survival of mice 28 days after injection of treated tumor cells: versus 2-toluoyloxy-SW treated or untreated B16F10 cells
Procedure: B16F10 melanoma cells were maintained in log-phase growth in MEM plus 10% FCS (Gibco) either untreated or treated for 48 hr with SW or analogues of SW. Cells were harvested with trypsin/EDTA (Gibco), washed and 10^5 melanoma cells in 100 μl of phosphate buffered saline (PBS) were injected into the lateral tail vein of male C57B1/6J mice. The lungs were removed from the mice and tumor nodules were counted at death or on day 28 when the experiment was terminated.
B16F10 melanoma cells were injected into the lateral tail vein of C57B1/6 mice at 10^5 cells/mouse. […] The experiment was terminated on day 28 and lung colonies in the mice were counted.

lysosomal mannosidase = assay: Lysosomal mannosidase assay (pH 5.0); format: biochemical; conditions: para-nitrophenyl α-mannose
Procedure: The assay for rat liver Golgi α-mannosidase II contained 5 mM para-nitrophenylα-mannose, 40 mM sodium acetate pH 5.6, plus serially diluted test compouunds and mannosidase enzyme in a total volume of 50 ul, in 96 well plates. Plates were incubated 45 min at 37° C., then the reaction was stopped with 50 μl of 0.5M sodium carbonate. The absorbance of reaction products was read at 405 nm. The lysosomal mannosidase was done in the same procedure but with 40 mM sodium acetate buffer pH 5.0. The numbers in the table are IC50 values in μM for inhibition of mannosidase activity.

B16F10 melanoma cells [3] = conditions: 1000 ng/ml; cited from earlier work
[4] = MDAY-D2 tumor cell lysate, pH 5.0, read-out: IC50 for inhibition of MDAY-D2 α-mannosidase
[5] = tumor cells cultured 48 hr with 0.02 ug/ml drug
[6] = tumor cells cultured 48 hr with 0.1 ug/ml drug
[7] = tumor cells cultured 48 hr with 1.0 ug/ml drug

| SMILES | IC50 [1, 4] | lung colonies (mean ± range) (B16F10 melanoma cells [2]; [6]) | Survivors at day 28 (B16F10 melanoma cells [2]; [6]) | lung colonies (mean ± range) (B16F10 melanoma cells [2]; [7]) | Survivors at day 28 (B16F10 melanoma cells [2]; [7]) | further results |
| --- | --- | --- | --- | --- | --- | --- |
| O=C(OC1CN2CCCC(O)C2C1O)c1ccccc1 (centres unmarked) [2-benzoyloxy-SW] | 720 µM |  |  |  |  |  |
| CCCC(=O)OC1CN2CCCC(O)C2C1O (centres unmarked) [2-butanoyloxy-SW] | 35 µM |  |  |  |  |  |
| CCCCCCCC(=O)OC1CN2CCCC(O)C2C1O (centres unmarked) [2-octanoyloxy-SW] | 35 µM | 13 (8-20) | 3/5 | 1 (0-2) | 2/5 | lung colonies (mean ± range) (B16F10 melanoma cells [2]; [5]): 9 (5-17); Survivors at day 28 (B16F10 melanoma cells [2]; [5]): 3/5; survival of mice 28 days after injection of treated tumor cells (B16F10 melanoma cells [2]): significantly higher |
| O=C(OC1CN2CCCC(O)C2C1O)c1ccc([N+](=O)[O-])cc1 (centres unmarked) [2-p-nitrobenzoyloxy-SW] | 35 µM |  |  |  |  |  |
| Cc1ccc(C(=O)O[C@@H]2CN3CCC[C@@H](O)[C@@H]3[C@@H]2O)cc1 [2-toluoyloxy-SW] | 69 µM | > 100 | 0/5 | > 100 | 0/5 |  |
| OC1CN2C[C@@H](O)[C@@H](O)[C@H]2[C@H](O)C1O (some centres unmarked) [6,7-dihydroxy-SW] | 10 µM |  |  |  |  |  |
| CCCCCCCCCCCCCC(=O)OC1CCCN2CC(O)C(O)C12 (centres unmarked) [8-myristinoyloxy-SW] | > 500 µM |  |  |  |  |  |
| CCCCCCCCCCCCCCCC(=O)OC1CCCN2CC(O)C(O)C12 (centres unmarked) [8-palmitoyloxy-SW] | 500 µM |  |  |  |  |  |
| O[C@H]1[C@H]2[C@H](O)CCCN2C[C@H]1O [SW, Swainsonine, reference compound] |  | 5 (2-10) | 4/5 | 3 (0-4) | 4/5 | IC50 [1]: 0.5 µM; lung colonies (mean ± range) (B16F10 melanoma cells [2]; [5]): 23 (15-31); Survivors at day 28 (B16F10 melanoma cells [2]; [5]): 2/5; survival of mice 28 days after injection of treated tumor cells (B16F10 melanoma cells [2]): significantly higher; IC50 (lysosomal mannosidase): 0.082 µM; inhibition of organ colonization by B16F10 melanoma cells (B16F10 melanoma cells [3]): > 90% |
